Earlier results on 45 substances are cited in US20250231185A1, “Coronavirus T Cell Epitopes, Megapools and Uses Thereof” (La Jolla Institute for Immunology, priority 2021, published 2025).

In one series the test system is CD8+ T cells. The note with it: SARS-CoV-2-derived CD8 epitopes; dominant = recognized by 3 or more donors/different studies; cited from earlier work.
For 696 (FADDLNQLTGY) [compound 696], the Dominant entry was “Yes (more dominant epitopes are defined by being recognized by 3 or more donors/different studies)”.

The same series, now with this note: T cell subset (CD4 or CD8) recognizing the SARS-CoV-2-derived epitope; cited from earlier work.
On to 691 (YYKKDNSY) [compound 691], for which the Restriction result is recorded as “CD8”. On to 692 (YYKKDNSYF) [compound 692], for which the Restriction entry is on record as “CD8”. Consider 694 (ASFDNFKFV) [compound 694], for which the Restriction entry was “CD8”. In the case of 695 (KFADDLNQL) [compound 695], the Restriction result is on record as “CD8”.

With 696 (FADDLNQLTGY) [compound 696], the Restriction result is listed as “CD8”.

Consider 697 (ASRELKVTF) [compound 697], for which the Restriction entry is “CD8”. Turning to 698 (DVVAIDYKHY) [compound 698], the Restriction entry is recorded as “CD8”. Turning to 699 (VVAIDYKHY) [compound 699], the Restriction result is listed as “CD8”.

The same series, now with this note: T cell type (CD4 or CD8) recognizing the SARS-CoV-2 epitope; cited from earlier work.
Take 900 (TYKNTCDGTTF) [compound 900]: the Restriction result is “CD8”. For the substance 902 (TFTYASALW) [compound 902], the Restriction entry was “CD8”. For 907 (SEISMDNSPNL) [compound 907], the Restriction result is “CD8”.

Consider 908 (AWPLIVTAL) [compound 908], for which the Restriction result is recorded as “CD8”. With 912 (SDGTGTIY) [compound 912], the Restriction result is “CD8”. As to 915 (GPKVKYLYF) [compound 915], the Restriction entry is “CD8”. For 916 (YLYFIKGLNNL) [compound 916], the Restriction entry is given as “CD8”.

With 917 (YFIKGLNNL) [compound 917], the Restriction result is recorded as “CD8”. 918 (VPANSTVL) [compound 918]: the Restriction result was “CD8”. For the substance 919 (VPANSTVLSF) [compound 919], the Restriction result is on record as “CD8”. Consider 921 (YLASGGQPI) [compound 921], for which the Restriction result was “CD8”. On to 923 (VVYRAFDIY) [compound 923], for which the Restriction result is given as “CD8”. As to 924 (FDIYNDKVAGF) [compound 924], the Restriction result is reported as “CD8”.

Consider 925 (KVAGFAKFL) [compound 925], for which the Restriction result is on record as “CD8”. For the substance 926 (KVAGFAKFLK) [compound 926], the Restriction entry is recorded as “CD8”. Regarding 927 (NLIDSYFVV) [compound 927], the Restriction entry is on record as “CD8”. 928 (YFVVKRHTF) [compound 928]: the Restriction result was “CD8”. Turning to 929 (VPHISRQRL) [compound 929], the Restriction entry is given as “CD8”.

As for 932 (TLKEILVTY) [compound 932], the Restriction entry is reported as “CD8”. Turning to 933 (FVENPDILRV) [compound 933], the Restriction result was “CD8”. For the substance 934 (VENPDILRV) [compound 934], the Restriction result was “CD8”. Take 935 (VENPDILRVY) [compound 935]: the Restriction entry is “CD8”. Take 936 (VRQALLKTV) [compound 936]: the Restriction entry is on record as “CD8”. As to 937 (DAMRNAGIV) [compound 937], the Restriction result is on record as “CD8”. Consider 938 (SLLMPILTL) [compound 938], for which the Restriction entry is given as “CD8”. 941 (HVDTDLTKPY) [compound 941]: the Restriction entry is “CD8”. For the substance 942 (KPYIKWDLL) [compound 942], the Restriction result is “CD8”. On to 946 (STVFPPTSF) [compound 946], for which the Restriction entry is “CD8”. On to 947 (FPPTSFGPL) [compound 947], for which the Restriction result is “CD8”. In the case of 948 (TSFGPLVRK) [compound 948], the Restriction entry is listed as “CD8”. With 949 (SFGPLVRKI) [compound 949], the Restriction entry is “CD8”. For the substance 950 (KIFVDGVPFV) [compound 950], the Restriction result is on record as “CD8”. With 952 (FVVSTGYHFR) [compound 952], the Restriction result is listed as “CD8”. In the case of 953 (VVSTGYHFR) [compound 953], the Restriction entry is recorded as “CD8”. For 954 (NLHSSRLSF) [compound 954], the Restriction result is given as “CD8”. For 955 (QTVKPGNFNK) [compound 955], the Restriction result is on record as “CD8”. For the substance 957 (FAVSKGFFK) [compound 957], the Restriction entry is on record as “CD8”.
